From patent US7354904B2, “Bacteriocin inducer peptides” (priority 2005, dated 2008)

Columns and labels:
Campylobacter jejuni = experiment: Direct detection of antimicrobial activity: SDS-PAGE / isoelectrofocusing gel overlaid with Campylobacter jejuni; type: cell-based
Excerpt: (§1) FIGS. 1A and 1B are photographs showing the direct detection of signal peptide and bacteriocin OR-7 after SDS-PAGE (A) and isoelectrofocusing (B). […] In FIG. 1A Lane 1-Molecular Mass Markers LMW Range 2,100-12,500 (Amersham Pharmacia Biotech): 2,100; 5,780; 8,400; 12,500 Da. […] Lane 3 contained pI standards (Protein Test Mixture, I Marker Proteins, Serva): 10.0, 9.2, 8.1, 6.9, 5.5, 4.3.
(§2) FIGS. 2A and 2B are photographs showing direct detection of signal peptide and bacteriocin 50-52 after SDS-PAGE (A) and isoelectrofocusing (B). […] Lane 3 contained pI standards (Protein Test Mixture, I Marker Proteins, Serva): 10.0, 8.1, 7.9, 6.4, 5.5, 4.3, 4.1, and 3.8.
(§3) FIGS. 3A and 3B are photographs showing the direct detection of signal peptide and bacteriocin 760 after SDS-PAGE(A) and isoelectrofocusing (B). […] Lane 3 contained pI standards (Protein Test Mixture, I Marker Proteins, Serva): 10.0, 8.1, 7.9, 6.4, 5.5, 4.3, 4.1, and 3.8.

[1] = Isoelectric point by isoelectrofocusing; type: physicochemical
Excerpt: as §1, §2, §3
At the end of 14 hours the supernatant from the cultures was placed into 500 ml centrifuge flasks with about one milliliter of regenerated Sepharose SP Fast Flow (v/v 500: 1). This was incubated for approximately 1 hour at room temperature with stirring. The suspension was then washed with about 100 ml of a 0.2 M TRIS-HCl buffer pH approximately 6.4. The bacteriocins were eluted by centrifugation with about 100 ml of approximately 0.2 M K2HPO4, pH of about 5.8 at about 7,000×g for approximately 10 minutes. Antagonistic activity of the bacteriocin fractions against C. jejuni and S. enteritidis was assessed using a Spot Test as described above. The level of purity of the bacteriocin fractions was determined by SDS-PAGE. The isoelectric points of the fractions were determined by isoelectric focusing. Concentrations of protein for all bacteriocin fractions were determined at 215 nm using a spectrophotometer.

C. jejuni = experiment: Spot Test, antagonistic activity of isolated signal peptides; type: cell-based, Campylobacter jejuni; details: isolated signal peptide
Procedure: (§4) The antagonistic activity of the bacteriocins produced when using the signal peptide and an inducer strain of bacteria against C. jejuni and S. enteritidis was assessed using a Spot Test. The steps included taking various concentrations of pure preparation (μg/ml) of the bacteriocin in approximately 10 microliters of volume plated onto blood-supplemented Campylobacter agar or Nutrient agar (MPA or Meta Peptone Agar) previously seeded with cells of target bacteria. Plates containing cultures of C. jejuni were grown at about 42° C., under microaerobic conditions. Plates containing S. enteritidis were grown at about 37° C. under aerobic conditions. Activity of the bacteriocin was expressed in arbitrary units (AU) per one milliliter of the preparation at which a visible zone of inhibition of the growth of culture appears (Henderson et al., Archives of Biochemistry and Biophysics, Volume 295, 5-12, 1992; herein incorporated by reference). Specific activity can also expressed as arbitrary units per milligram of pure bacteriocin.
(§5) Its activity was about 200 AU/ml and its molecular weight was about 2.5 kDa, as determined by SDS-PAGE electrophoresis. The isoelectric point (pI) was about 7.9 (FIGS. 1A and 1B).
(§6) Its molecular weight was about 3.1 kDa as measured by SDS-PAGE and the isoelectric point (pI) was about 8.1 (FIGS. 2A and 2B).
(§7) Its molecular weight was about 2.1 kDa as determined by SDS-PAGE electrophoresis and its isoelectric point was about 8.9 (FIGS. 3A and 3B).

[2] = tested on: Enterococcus faecium LWP 50-52; experiment: Influence of signal peptide on bacteriocin 50-52 production, flask culture (fraction protein at 215 nm, activity by spot-test against C. jejuni and S. enteritidis); type: cell-based
S. enteritidis = experiment: Spot Test, antagonistic activity of isolated signal peptides; type: cell-based; details: isolated signal peptide
Procedure: as §4, §5, §6, §7

[3] = tested on: Streptococcus cricetus LWP 760; experiment: Influence of signal peptide on bacteriocin 760 production, flask culture (fraction protein at 215 nm, activity by Spot Test against C. jejuni and S. enteritidis); type: cell-based
[4] = tested on: Lactobacillus salivarius PVD-32; experiment: Bacteriocin OR-7 production with signal peptide under scaled up conditions (bioreactor); type: cell-based; details: V-61 reactor, 10% Brucella Broth, PVD-32, LWP252, peptide 0.2 mg, pH 6.9, 37° C., 14 hours
[5] = tested on: Lactobacillus salivarius PVD-32; experiment: Influence of signal peptide on bacteriocin OR-7 production, flask culture (fraction protein at 215 nm, activity by Spot Test against C. jejuni and S. enteritidis); type: cell-based; details: for Activity / Protein Concentration / Protein increase vs. Control / Specific Activity / mg protein/liter: 10% B-B
[6] = LWP 50-52 + LWP 320, PVD-32 peptide 0.1 mg/ml
[7] = LWP 760 + LWP320, 0.1 mg PVD 32 peptide
[8] = producer PVD32, no inducer, peptide 0.1 mg
[9] = producer PVD-32 + inducer LWP-252, peptide 0.001 mg
[10] = producer PVD-32 + inducer LWP-252, peptide 0.01 mg
[11] = producer PVD-32 + inducer LWP-252, peptide 0.1 mg
[12] = producer PVD-32, no inducer, peptide 0.001 mg
[13] = producer PVD-32, no inducer, peptide 0.01 mg

For “KTYYGTNGVHCTKNSLWGKVRLKNMKYDQNTTYMGRLQDILLGWATGAFGKTH (listed as Lactobacillus salivarius) [bacteriocin OR-7, bacteriocin produced by Lactobacillus salivarius PVD-32]”, the “antimicrobial activity of band (zone of growth inhibition)” value (Campylobacter jejuni) was “corresponds to the antimicrobial activity” and the “isoelectric point (pI)” value [1] was “about 8.4”.

In the case of “MVTKSLVLAWVVALLACGMVKGLT (listed as Lactobacillus salivarius) [PVD-32 Signal Peptide, signal peptide isolated from Lactobacillus salivarius PVD-32, stimulates bacteriocin OR-7 production]”, the Activity (C. jejuni) is reported as “about 200 AU/ml”, the antagonistic activity (C. jejuni) is reported as “weak antagonistic activity” and the Activity [2, 6] is reported as 819,200 AU/ml. The “Protein Concentration” value [2, 6] was 0.25 mg/mL, the “Protein increase vs. Control” value [2, 6] was 1 and the “Specific Activity” value [2, 6] was 3,276,800 AU/mg. The mg protein/liter [2, 6] was 82.5 mg protein/liter, the “yield of bacteriocin 50-52 versus the control” value ([2]; signal peptide of another strain added to LWP 50-52 + LWP 320) was “did not increase” and the Activity (S. enteritidis) was “about 200 AU/ml”. For the same molecule, the antagonistic activity (S. enteritidis) was “weak antagonistic activity”, the Activity [3, 7] was 1,638,840 AU/ml and the “Increase in amount of protein vs. control” value [3, 7] was 1. The “Protein Concentration” value [3, 7] was 0.30 mg/mL, the “Protein Produced from 1 liter Culture Fluid” value [3, 7] was 99 mg and the “Specific Activity” value [3, 7] was 5,462,666 Au/mg. The “yield of bacteriocin 760 versus control” value ([3]; signal peptide of another strain added to LWP 760 + LWP 320) was “did not increase”, the “isoelectric point (pI)” value [1] was “about 7.9” and the Activity [4] was 3,276,800 AU/ml. The “Amount of Protein produced in One liter” value [4] was 225 mg, the “Concentration of Protein” value [4] was 1.5 mg/mL and the “Increase in amount of protein vs. control” value [4] was 3. The “Specific Activity” value [4] was 2,184,533 AU/mg, the Activity [5, 8] was 102,400 AU/ml and the Protein Concentration [5, 8] was 0.18 Mg/ml. For the same molecule, the “Protein increase vs. Control” value [5, 8] was 0.9, the “Specific Activity” value [5, 8] was 568,888 AU/mg and the mg protein/liter [5, 8] was 59.4 mg protein/liter. The Activity [5, 9] was 409,600 AU/ml, the Protein Concentration [5, 9] was 0.22 Mg/ml and the “Protein increase vs. Control” value [5, 9] was 1.1. The “Specific Activity” value [5, 9] was 1,861,818 AU/mg, the mg protein/liter [5, 9] was 72.6 mg protein/liter and the Activity [5, 10] was 1,638,400 AU/ml. The Protein Concentration [5, 10] was 0.65 Mg/ml, the “Protein increase vs. Control” value [5, 10] was 3.25 and the “Specific Activity” value [5, 10] was 2,520,615 AU/mg. The mg protein/liter [5, 10] was 214.5 mg protein/liter, the mg protein/liter ([5]; producer PVD-32 + inducer LWP-252, peptide 0.01 mg, listed as signal peptide from PVD-32) was “about 214.5 mg protein/liter” and the Activity [5, 11] was 409,600 AU/ml. For the same molecule, the Protein Concentration [5, 11] was 0.22 Mg/ml, the “Protein increase vs. Control” value [5, 11] was 1.1 and the “Specific Activity” value [5, 11] was 1,861,818 AU/mg. For the same molecule, the mg protein/liter [5, 11] was 72.6 mg protein/liter, the Activity [5, 12] was 204,800 AU/ml and the Protein Concentration [5, 12] was 0.2 Mg/ml. The “Protein increase vs. Control” value [5, 12] was 1, the “Specific Activity” value [5, 12] was 1,024,000 AU/mg and the mg protein/liter [5, 12] was 66 mg protein/liter. The Activity [5, 13] was 204,800 AU/ml, the Protein Concentration [5, 13] was 0.2 Mg/ml and the “Protein increase vs. Control” value [5, 13] was 1. For the same molecule, the “Specific Activity” value [5, 13] was 1,024,000 AU/mg, the mg protein/liter [5, 13] was 66 mg protein/liter and the “production of bacteriocin OR-7 per liter of culture fluid” value ([5]; simultaneous culture of PVD-32 and LWP-252 with signal peptide (flask and bioreactor)) was 214-225 milligrams.

For “TTKNYGNGVCNSVNWCQCGNVWASCNLATGCAAWLCKLA (listed as Enterococcus faecium) [bacteriocin 50-52, bacteriocin produced by Enterococcus faecium LWP 50-52]”, the “antimicrobial activity of band (zone of growth inhibition)” value (Campylobacter jejuni) was “corresponds to the antimicrobial activity” and the “isoelectric point (pI)” value [1] was “about 8.4”.

B1: NRWYCNSAAGGVGGAAVCGLAGYVGEAKENIAGEVRKGWGMAGGFTHNKACKSFPGSGWASG (protein, listed as Streptococcus cricetus)
chain: NRWYCNSAAGGVGGAAVCGLAGYVGEAKENIAGEVRKGWGMAGGFTHNKACKSFPGSGWASG
notes: bacteriocin produced by Streptococcus cricetus LWP 760
With B1 the “antimicrobial activity of band (zone of growth inhibition)” value (Campylobacter jejuni) was “corresponds to the antimicrobial activity” and the “isoelectric point (pI)” value [1] was “about 9.5”.
